According to US9138659B2, “Compositions, methods, and systems relating to controlled crystallization and/or nucleation of molecular species” (Massachusetts Institute of Technology, priority 2010, dated 2015):

How the values were obtained:
Format in all cases: physicochemical
[1] = Isothermal titration calorimetry of ASA adsorption onto microgels; details: 38/62 ethanol/water, 23° C
Procedure: The ASA-polymer interactions were further quantified with the solute adsorption enthalpy via Isothermal Titration calorimetry (ITC), which also helps to deepen the understanding of partitioning effect. […] The data are presented both as instantaneous enthalpies at a given concentration, ΔHASA-gel (top), and as cumulative enthalpies up to a certain concentration, ΔHASA-gel ^tot (bottom).
Isothermal titration calorimetry (ITC): ITC measurements were performed on a TA Instruments NanoITC calorimeter. All experiments were performed at 23° C. using injections of ΔV=10 μL of titrant, with a waiting time of 1000 sec in between injections and 25 injections per measurement. For all measurements, The differential heat input, q(t), was measured as a function of time t over all injections, followed by integration of q(t) over each individual injection to obtain the molar heat of injection, Q(T,P,c). The molar heat of injection can then be cumulatively added over all previous injections, yielding the total molar heat, Qtot(T,P,c). […]
where ΔHASA-gel is the molar enthalpy of interaction between ASA and the microgel particles, and ΔHdil^i is the molar enthalpy of dilution of component i (ASA or gel, respectively) in 38/62 (v/v) ethanol/water. […] (X) was used to subtract the measured dilution enthalpies from the initial measurements of Q(T,P,c) in order to obtain ΔHASA-gel. […]

[2] = Nucleation induction time of aspirin on crosslinked polymer plates (non-porous and porous); details: for average induction time τ from linear fit ln(P)=−t/τ: bulk polymerization
Procedure: To further quantify the surface chemistry effect on nucleation kinetics, nucleation induction time distribution was measured with the API of interest. Nucleation induction time is an indicator of the surface nucleation activity because it can be shortened when the presence of a surface lowers the free energy barrier of nucleation. Due to the stochastic nature of nucleation events, a significant number of experiments were performed to obtain the probability distribution of nucleation induction time.
As an example of induction time measurements, polymer plates were prepared by UV polymerizing the mixture of a monomer and the crosslinker divinylbenzene held by Teflon holders. Subsequent drying under vacuum removed unreacted monomer molecules. Monomers used to synthesize polymer plates were 4-Acryloylmorpholine (AM), 4-Hydroxybutyl acrylate (HBA), 2-Carboxyethyl acrylate (CEA), and styrene (STY). AM, HBA, and CEA served as positive controls, whilst STY a negative control. Each polymer plate was inserted together with the Teflon holder vertically into the aspirin solution, and then the solution was quenched to initiate nucleation. The starting concentration and the nucleation temperature were chosen such that the supersaturation produced was high enough to give reasonably short induction time but low enough to suppress bulk nucleation. 48 vials of each polymer sample were tested simultaneously and the fraction of vials crystallized was recorded as a function of time to produce a plot of cumulative probability distribution of induction time, as shown in FIG. 4.
In FIG. 4: Cumulative probability distribution of nucleation induction time (a) and statistical analysis on the same data sets (b) obtained with polymers synthesized via bulk polymerization. Crystallization of aspirin was performed at supersaturation S=4.75. The linear regression in […] follows the formula ln(P)=−t/τ to obtain the average induction time τ. P is the probability for no crystallization event to occur within time t. […] The results of linear fitting are i) STY ln(P)=−t/243.9, R^2=0.987; ii) CEA ln(P)=−t/113.6, R^2=0.978; iii) HBA ln(P)=−t/38.2, R^2=0.995.
For example, by the PIPS method, the mixture of a monomer and the crosslinker divinylbenzene dissolved in ethanol was subjected to UV irradiation to initiate the polymerization. As the molecular weight of the polymer increases to a critical point, dynamic asymmetry between solvent molecules and the polymer lead to nucleation and growth of solvent-rich regions within the polymer matrix. Subsequent evaporation of the solvent during the vacuum drying leaves pores on the polymer films. One common feature shared by most porous surfaces is a raised edge surrounding the pore region, which may be a sign of eruptional behavior caused by fast solvent evaporation under vacuum. As determined by AFM, the pores found on polymer sample AM were around 100 nm in width and 4 nm in depth. Comparatively, polymer sample HBA carried pores about 50 nm in width and 5-8 nm in depth. The non-porous AM and HBA samples were synthesized by bulk polymerization method and used as a control and had relatively smooth surfaces despite a few impurities.

[3] = Equilibrium partitioning of ASA / ACM into PEGDA and PEGDA-co-AM gels
Procedure: This theory is exemplified by quantifying the partitioning of aspirin between the PEGDA gel phase and 38/62 ethanol/water (v/v), and determining the concentration of aspirin in the hydrogel particles. The partitioning experiments were performed at the same solution concentration and temperature as in the nucleation induction time experiments. In the partitioning experiment, both the concentrations of aspirin and ethanol were measured, as there are three species in the bulk solution, namely aspirin, ethanol and water, all of which partition in the gel phase to a certain degree determined by their relative interaction with the PEGDA polymer matrix.
Composition of aspirin solution in the PEGDA gel phase were compared with the bulk phase. PEGDA gels sufficiently large for convenient handling were synthesized by UV polymerization, following the same formulation as the synthesis of PEGDA particles used in the crystallization study. The PEGDA gels were washed with ethanol and vacuum dried to remove unreacted species. The gel was then immersed in excessive 38 mg/ml aspirin solution in 38/62 ethanol/water (v/v) and allowed sufficient time to reach equilibrium swelling at 15° C. before taken out, pad dried, and put in excessive water. After 5 hours immersed in water, the concentrations of aspirin and ethanol in the aqueous phase were analyzed by UV-Vis spectroscopy and Gas Chromatography, respectively.
In FIG. 10: Partitioning of aspirin vs. acetaminophen in the PEGDA gel. Y axis represents the relative API concentration in the PEGDA, normalized by the bulk concentration. The aspirin partitioning experiment was conducted in 38 mg/ml aspirin solution in 38/62 ethanol/water (v/v) at 15° C. As for acetaminophen, 95 mg/ml acetaminophen solution in 38/62 ethanol/water (v/v) was used and the equilibration temperature was 8° C. In both cases, the experimental conditions were kept the same as used in the nucleation induction time study.
Quantification of polymer-solute interactions: The strength of intermolecular interactions between the PEGDA-co-AM polymer network and the molecule to crystallize was characterized with the solute equilibrium partition coefficient at the same condition as used in the crystallization study. Solute partition coefficient κ, defined as the ratio of solute mass fraction in solution confined in the gel to that in the bulk, is a relevant parameter because it informs the solute concentration in the gel at the crystallization condition, which is an important factor affecting nucleation. […] The PEGDA polymers are comprised of the PEG subchain and the acrylate crosslinkers.
Partition coefficient measurements: Partition coefficients of ASA in PEGDA-co-AM gels from its bulk solution were determined as follows. In brief, a series of gels with varying mesh sizes of approximately 5 mm in diameter and 0.5 mm in thickness were synthesized via UV polymerization following the same formula as used in the microgel synthesis. The residue solvent, porogen and monomer molecules were removed by extensive washing with solvent ethanol and subsequent vacuum drying. The dry gels were then immersed in excessive volume of 38 mg/ml ASA solution in 38/62 (v/v) ethanol/water at 15° C. for overnight.

enthalpy of adsorption of ASA at infinite dilution ΔHASA-gel^∞ ([1]; PEG400DA microgels): -9.8 kcal/mol | enthalpy of adsorption of ASA at infinite dilution ΔHASA-gel^∞ ([1]; PEG400DA-co-AM microgels): -12.3 kcal/mol | average induction time τ from linear fit ln(P)=−t/τ ([2]; CEA polymer, S=4.75, FIG. 4, in h): 113.6 | average induction time τ from linear fit ln(P)=−t/τ ([2]; HBA polymer, S=4.75, FIG. 4): 38.2 h | average induction time τ from linear fit ln(P)=−t/τ ([2]; STY polymer, S=4.75, FIG. 4, in h): 243.9 | Average induction time τ ([2]; non-porous AM polymer, S = 4.75): 38.2 h | Average induction time τ ([2]; non-porous HBA polymer, S = 4.75): 243.9 h | Average induction time τ ([2]; porous AM polymer, S = 4.2): 8.8 h | Average induction time τ ([2]; porous HBA polymer, S = 4.2): 54.6 h | increase of κ after introducing AM into the PEGDA gel ([3]; ASA, on average): 60% | molar ratio of ethylene oxide units in PEG to ASA ([3]; PEGDA gels, all mesh sizes, calculated from the partition experiments): 7.7 | AM to ASA molar ratio ([3]; PEGDA-co-AM gels): around unity | ASA concentration in the PEGDA-co-AM gels relative to bulk solution ([3]; PEGDA-co-AM gels): as high as six times | aspirin concentration in PEGDA particles with respect to the bulk ([3]; all PEGDA particles, 38 mg/ml in 38/62 ethanol/water, 15° C): more than three times
Compound: CC(=O)Oc1ccccc1C(=O)O [aspirin]
